# Calls of active or inactive are those of the source.
# Experiments:
# [1] = target: T1, Sentrin-specific protease 8 (Homo sapiens, UniProt Q96LD8); test: SENP8 protease inhibitors, SAR follow-up, biochemical, luminescence, set 2 (AID 588601); format: functional
# T1 sequence (Q96LD8 whole entry): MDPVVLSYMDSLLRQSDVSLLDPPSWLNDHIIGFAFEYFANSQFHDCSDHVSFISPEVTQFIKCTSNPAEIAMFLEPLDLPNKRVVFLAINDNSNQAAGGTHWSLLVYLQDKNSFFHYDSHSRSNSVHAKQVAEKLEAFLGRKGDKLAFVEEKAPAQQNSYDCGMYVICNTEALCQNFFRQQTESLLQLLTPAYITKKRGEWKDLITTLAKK
# Caspase-3 = target: T2, Caspase-3 (Homo sapiens, UniProt P42574); test: SAR Analysis of small molecule inhibitors of Sentrin-specific proteases (SENPs) using a Caspase-3 Selectivity assay. [Related pubchem assays (depositor defined):AID2540, AID2599, AID434973, AID489001]; format: functional
# T2 sequence (P42574 whole entry): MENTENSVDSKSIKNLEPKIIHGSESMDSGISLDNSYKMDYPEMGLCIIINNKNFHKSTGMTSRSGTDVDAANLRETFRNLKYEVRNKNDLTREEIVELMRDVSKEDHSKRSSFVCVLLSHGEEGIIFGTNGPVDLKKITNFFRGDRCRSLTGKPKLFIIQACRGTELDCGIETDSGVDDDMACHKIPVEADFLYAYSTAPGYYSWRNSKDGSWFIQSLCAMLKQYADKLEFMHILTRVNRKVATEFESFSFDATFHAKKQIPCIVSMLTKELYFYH
# [2] = target: T3, Oxysterols receptor LXR-beta (Homo sapiens, UniProt P55055); test: LXR agonists, Gal4 luciferase reporter, dose response, counter-screen for ssDAF-12 agonist project, cell-based, luminescence, HEK293, S. stercoralis campaign (AID 720737); format: functional; settings: read-out: IC50 (the source's name)
# T3 sequence (P55055 whole entry): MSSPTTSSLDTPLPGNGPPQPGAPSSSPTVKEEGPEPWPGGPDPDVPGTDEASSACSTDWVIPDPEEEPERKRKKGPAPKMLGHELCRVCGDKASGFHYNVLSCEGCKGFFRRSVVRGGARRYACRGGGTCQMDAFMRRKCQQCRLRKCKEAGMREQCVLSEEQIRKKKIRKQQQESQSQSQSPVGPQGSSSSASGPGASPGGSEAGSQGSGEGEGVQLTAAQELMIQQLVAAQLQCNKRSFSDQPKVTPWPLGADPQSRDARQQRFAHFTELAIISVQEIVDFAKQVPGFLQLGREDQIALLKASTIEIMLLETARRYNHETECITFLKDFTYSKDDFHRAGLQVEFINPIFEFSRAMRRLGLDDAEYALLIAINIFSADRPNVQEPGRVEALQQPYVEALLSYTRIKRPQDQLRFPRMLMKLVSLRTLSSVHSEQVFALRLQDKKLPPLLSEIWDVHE
# [3] = target: T4, Zinc finger protein mex-5 (Caenorhabditis elegans, UniProt Q9XUB2); test: MEX-5/TCR-2 RNA interaction inhibitors, dose response, biochemical, C. elegans, fluorescence polarization (AID 1960)
# T4 sequence (Q9XUB2 whole entry): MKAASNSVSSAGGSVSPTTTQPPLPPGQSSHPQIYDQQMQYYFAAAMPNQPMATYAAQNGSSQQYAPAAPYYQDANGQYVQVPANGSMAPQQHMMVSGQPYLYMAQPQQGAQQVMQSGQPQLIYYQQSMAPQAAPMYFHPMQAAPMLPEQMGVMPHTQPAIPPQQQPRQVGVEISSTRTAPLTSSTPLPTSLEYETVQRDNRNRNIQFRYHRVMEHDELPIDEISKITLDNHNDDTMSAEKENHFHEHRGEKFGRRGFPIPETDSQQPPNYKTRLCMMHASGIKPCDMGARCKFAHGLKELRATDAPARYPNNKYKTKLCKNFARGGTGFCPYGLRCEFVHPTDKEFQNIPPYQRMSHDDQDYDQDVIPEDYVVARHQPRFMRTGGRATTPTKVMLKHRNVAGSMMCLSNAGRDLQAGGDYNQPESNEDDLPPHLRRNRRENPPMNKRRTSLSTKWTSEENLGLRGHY
# Hexokinase HKDC1 = target: T5, Hexokinase HKDC1 (Homo sapiens, UniProt Q2TB90); test: HKDC1 hexokinase inhibitors, dose response, biochemical, W721R variant (AID 504729); format: functional
# T5 sequence (Q2TB90 whole entry): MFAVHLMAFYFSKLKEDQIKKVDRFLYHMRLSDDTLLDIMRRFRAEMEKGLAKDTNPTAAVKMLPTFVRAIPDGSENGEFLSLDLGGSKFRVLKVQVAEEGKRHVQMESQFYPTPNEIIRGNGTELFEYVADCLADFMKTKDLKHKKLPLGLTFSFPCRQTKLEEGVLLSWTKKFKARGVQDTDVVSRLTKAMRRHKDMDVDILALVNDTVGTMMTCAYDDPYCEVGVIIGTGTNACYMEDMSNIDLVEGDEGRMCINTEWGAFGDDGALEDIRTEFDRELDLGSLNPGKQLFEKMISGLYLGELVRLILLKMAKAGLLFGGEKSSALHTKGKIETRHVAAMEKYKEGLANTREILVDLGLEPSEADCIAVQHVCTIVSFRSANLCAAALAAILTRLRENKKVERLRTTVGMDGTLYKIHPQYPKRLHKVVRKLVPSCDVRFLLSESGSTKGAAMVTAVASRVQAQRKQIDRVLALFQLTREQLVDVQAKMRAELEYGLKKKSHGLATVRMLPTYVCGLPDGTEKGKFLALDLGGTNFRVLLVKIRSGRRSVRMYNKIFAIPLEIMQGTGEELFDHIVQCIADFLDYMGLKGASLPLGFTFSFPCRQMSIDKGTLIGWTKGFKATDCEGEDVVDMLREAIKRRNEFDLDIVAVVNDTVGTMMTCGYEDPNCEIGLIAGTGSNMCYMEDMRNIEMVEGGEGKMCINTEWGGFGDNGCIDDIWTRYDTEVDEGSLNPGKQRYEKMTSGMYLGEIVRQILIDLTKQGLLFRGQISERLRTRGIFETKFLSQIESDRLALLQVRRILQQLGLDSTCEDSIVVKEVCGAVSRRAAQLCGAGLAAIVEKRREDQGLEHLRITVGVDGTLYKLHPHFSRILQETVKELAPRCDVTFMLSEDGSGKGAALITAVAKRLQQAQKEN
# [4] = target: Polyadenylate-binding protein 1 (Homo sapiens, UniProt P11940); test: PABP1 MLLE–PAM2 interaction inhibitors, dose response, miRNA deadenylation inhibitor project, biochemical, fluorescence polarization, Cy5-PAM2 peptide, secondary (AID 602260); format: functional; settings: read-out: IC50_Mean
# BJ [5] = test: cells; format: functional, cell-based; settings: Homo sapiens
# [6] = target: DNA damage-inducible transcript 3 protein (Mus musculus, UniProt P35639); format: functional, Cricetulus griseus
# BJ [7] = test: cytotoxicity toward Ras-transformed BJeLR fibroblasts, dose response, cell-based, alamar blue fluorescence, cherrypicked samples (AID 2631); format: functional; settings: Homo sapiens;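 also: confirmatory dose-response assay in RAS-dependent BJ fibroblasts engineered with TERT, LT and ST, with cytotoxicity read by fluorescence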
# [8] = non-specific cell cytotoxicity, dose response, cytotoxicity control for PAX8 inhibitor project, plate reader, dry powder samples (AID 743021); format: functional, cell-based
# Sequence of DNA damage-inducible transcript 3 protein (P35639 whole entry): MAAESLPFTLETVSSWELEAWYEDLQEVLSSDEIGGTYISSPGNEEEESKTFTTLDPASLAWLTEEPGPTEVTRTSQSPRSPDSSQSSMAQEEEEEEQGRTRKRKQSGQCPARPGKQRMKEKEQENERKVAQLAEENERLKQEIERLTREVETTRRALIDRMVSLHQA
# Sequence of Polyadenylate-binding protein 1 (P11940 whole entry): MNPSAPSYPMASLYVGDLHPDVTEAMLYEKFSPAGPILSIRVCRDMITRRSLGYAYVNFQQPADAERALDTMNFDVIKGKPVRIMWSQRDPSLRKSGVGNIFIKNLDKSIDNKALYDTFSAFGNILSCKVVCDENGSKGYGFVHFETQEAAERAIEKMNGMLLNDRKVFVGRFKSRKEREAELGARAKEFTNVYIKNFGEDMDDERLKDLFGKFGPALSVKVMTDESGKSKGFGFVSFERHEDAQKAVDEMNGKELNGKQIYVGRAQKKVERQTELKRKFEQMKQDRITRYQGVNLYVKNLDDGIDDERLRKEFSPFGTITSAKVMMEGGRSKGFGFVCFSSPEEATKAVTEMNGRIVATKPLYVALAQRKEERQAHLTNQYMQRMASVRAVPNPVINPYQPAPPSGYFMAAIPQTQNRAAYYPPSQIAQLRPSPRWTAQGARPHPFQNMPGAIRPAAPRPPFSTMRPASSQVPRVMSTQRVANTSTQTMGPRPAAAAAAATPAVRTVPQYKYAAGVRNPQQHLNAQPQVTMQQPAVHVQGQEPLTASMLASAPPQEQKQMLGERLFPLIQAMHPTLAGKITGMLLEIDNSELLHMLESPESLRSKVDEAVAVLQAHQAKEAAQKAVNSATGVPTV
smiles,measurement,setting,value
Oc1ccccc1/C=C/c1noc(-c2ccccc2O)n1,IC50,[1],43 µM (active)
same,IC50,Caspase-3,21 µM (active)
same,EC50,[2],> 67.6 µM (inactive)
same,EC50,cells,> 67.6 µM (inactive)
O=C(O)CSc1cc(NS(=O)(=O)c2ccc(Cl)cc2)c2ccccc2c1O,EC50,[3],6.3 µM (active)
same,IC50,Hexokinase HKDC1,4.67 µM (active)
same,IC50,[4],> 66 µM (inactive)
Cc1nn(-c2ccccc2)c(Cl)c1CN(C(=O)CCl)c1ccc(Cl)cc1,EC50,BJ [5],2.82 µM (inconclusive)
same,Absolute IC50 (CHOP),[6],10 µM
same,EC50,BJ [7],515 nM (active)
same,AC50,[8],6.9 µM (active)

# — ChEMBL document CHEMBL1201862, “PubChem BioAssay data set” (2004)
